Laboratory results reported in US20080090900A1, “ANTIBIOTIC BUSHRIN” (University of Karachi, priority 2006, published 2008).

Tested on: Clostridium sporogenes
Experiment: microbe, parasite or virus in culture
Type: cell-based

Cc1cc(O)c2c(c1)C=CC(C)(c1ccoc1)C2 (stereo not shown) [Compound 1, 7-(3-furyl)-3,7-dimethyl-7,8-dihydro-1-naphthalenol]
antibacterial activity: less active
